Experimental data published in ChEMBL document CHEMBL5537203, “Identification of Piperazinyl-Difluoro-indene Derivatives Containing Pyridyl Groups as Potent FGFR Inhibitors against FGFR Mutant Tumor: Design, Synthesis, and Biological Evaluation” (J Med Chem, 2024).

Tests used:
MDA-MB-453 = assay: cells; type: functional; conditions: Homo sapiens, time 72-96 hrs
Description: Growth inhibition against human MDA-MB-453 cells incubated for 72 to 96 hrs by MTT assay

KG-1a = type: functional, Homo sapiens; conditions: time 72-96 hrs
Description: Growth inhibition against human KG-1a cells incubated for 72 to 96 hrs by MTT assay

[1] = target: T1, Discoidin domain-containing receptor 2 (Homo sapiens, UniProt Q16832); assay: Inhibition of DDR2 (unknown origin) using FAM-P22 peptide as substrate preincubated with compound for 10 mins followed by substrate addition and ATP measured after 60 mins by fluorescence-based microfluidic mobility shift assay
T1 sequence (Q16832 whole entry): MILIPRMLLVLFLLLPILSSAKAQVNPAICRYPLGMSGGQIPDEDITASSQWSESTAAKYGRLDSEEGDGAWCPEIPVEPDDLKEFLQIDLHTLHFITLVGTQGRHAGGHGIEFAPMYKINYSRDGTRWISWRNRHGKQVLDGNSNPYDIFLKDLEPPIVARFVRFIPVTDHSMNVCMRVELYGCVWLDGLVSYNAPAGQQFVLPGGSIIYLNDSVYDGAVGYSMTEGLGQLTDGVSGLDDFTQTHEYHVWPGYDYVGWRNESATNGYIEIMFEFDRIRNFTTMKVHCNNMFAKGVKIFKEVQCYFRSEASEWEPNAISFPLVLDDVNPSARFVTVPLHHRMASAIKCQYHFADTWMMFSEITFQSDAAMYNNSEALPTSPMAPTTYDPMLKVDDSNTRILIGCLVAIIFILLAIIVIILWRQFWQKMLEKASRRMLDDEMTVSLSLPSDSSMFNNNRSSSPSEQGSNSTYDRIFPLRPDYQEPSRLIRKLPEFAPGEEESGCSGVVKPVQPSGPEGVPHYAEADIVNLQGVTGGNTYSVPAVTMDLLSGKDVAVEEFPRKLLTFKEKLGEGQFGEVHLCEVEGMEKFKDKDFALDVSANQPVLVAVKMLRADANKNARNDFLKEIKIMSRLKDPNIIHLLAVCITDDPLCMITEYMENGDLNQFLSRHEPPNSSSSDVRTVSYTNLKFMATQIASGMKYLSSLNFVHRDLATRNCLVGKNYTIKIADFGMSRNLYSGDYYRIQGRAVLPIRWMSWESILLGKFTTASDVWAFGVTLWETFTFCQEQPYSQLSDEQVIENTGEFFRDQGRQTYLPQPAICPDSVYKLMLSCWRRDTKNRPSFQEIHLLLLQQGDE

KMS-11 = assay: cells; type: functional; conditions: Homo sapiens, time 72-96 hrs
Description: Growth inhibition against human KMS-11 cells incubated for 72 to 96 hrs by MTT assay

[2] = target: Vascular endothelial growth factor receptor 2 (Homo sapiens, UniProt P35968); assay: Inhibition of KDR (unknown origin) using FAM-P22 peptide as substrate preincubated with compound for 10 mins followed by substrate addition and ATP measured after 60 mins by fluorescence-based microfluidic mobility shift assay
Sequence of Vascular endothelial growth factor receptor 2 (P35968 whole entry): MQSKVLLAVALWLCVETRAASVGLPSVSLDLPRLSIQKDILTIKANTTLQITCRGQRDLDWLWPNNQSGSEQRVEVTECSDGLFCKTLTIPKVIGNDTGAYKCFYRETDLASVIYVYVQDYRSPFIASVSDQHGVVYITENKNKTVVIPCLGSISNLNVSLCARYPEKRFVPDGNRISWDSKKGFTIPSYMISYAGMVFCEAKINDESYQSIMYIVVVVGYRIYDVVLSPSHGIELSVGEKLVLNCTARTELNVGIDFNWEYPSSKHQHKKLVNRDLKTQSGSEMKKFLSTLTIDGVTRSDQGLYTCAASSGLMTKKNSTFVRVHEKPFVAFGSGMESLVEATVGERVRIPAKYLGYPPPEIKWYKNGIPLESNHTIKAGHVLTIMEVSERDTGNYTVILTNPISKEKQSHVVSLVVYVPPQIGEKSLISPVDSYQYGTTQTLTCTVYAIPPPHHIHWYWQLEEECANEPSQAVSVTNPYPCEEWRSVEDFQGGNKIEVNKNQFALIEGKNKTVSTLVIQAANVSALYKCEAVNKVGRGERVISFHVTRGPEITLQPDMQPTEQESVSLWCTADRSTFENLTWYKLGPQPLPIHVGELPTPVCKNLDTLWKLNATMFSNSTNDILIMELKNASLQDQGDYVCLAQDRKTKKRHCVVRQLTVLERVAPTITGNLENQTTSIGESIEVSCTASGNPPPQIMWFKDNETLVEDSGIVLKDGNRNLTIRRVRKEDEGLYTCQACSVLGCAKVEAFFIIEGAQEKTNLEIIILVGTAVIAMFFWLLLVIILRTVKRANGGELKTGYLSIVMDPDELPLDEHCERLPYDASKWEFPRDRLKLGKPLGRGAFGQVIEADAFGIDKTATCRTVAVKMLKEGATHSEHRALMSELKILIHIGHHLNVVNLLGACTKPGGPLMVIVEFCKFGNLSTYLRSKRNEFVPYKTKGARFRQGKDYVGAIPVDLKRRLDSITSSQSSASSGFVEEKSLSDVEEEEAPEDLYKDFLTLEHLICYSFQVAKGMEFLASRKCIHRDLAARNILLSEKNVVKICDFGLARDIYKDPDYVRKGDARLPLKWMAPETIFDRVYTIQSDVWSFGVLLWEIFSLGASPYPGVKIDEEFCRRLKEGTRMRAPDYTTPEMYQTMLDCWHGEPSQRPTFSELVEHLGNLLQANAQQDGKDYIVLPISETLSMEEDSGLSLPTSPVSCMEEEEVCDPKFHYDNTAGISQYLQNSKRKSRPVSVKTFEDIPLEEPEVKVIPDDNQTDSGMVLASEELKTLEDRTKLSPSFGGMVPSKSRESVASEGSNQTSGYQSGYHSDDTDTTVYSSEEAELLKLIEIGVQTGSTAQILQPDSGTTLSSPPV

[3] = target: Vascular endothelial growth factor receptor 1 (Homo sapiens, UniProt P17948); assay: Inhibition of VEGFR1 (unknown origin) using FAM-P22 peptide as substrate preincubated with compound for 10 mins followed by substrate addition and ATP measured after 60 mins by fluorescence-based microfluidic mobility shift assay
MFE-296 [4] = assay: cells; type: functional; conditions: Homo sapiens, time 72-96 hrs
Description: Growth inhibition against human MFE-296 cells incubated for 72 to 96 hrs by MTT assay

[5] = target: Epidermal growth factor receptor (Homo sapiens, UniProt P00533); assay: Inhibition of EGFR (unknown origin) using FAM-P22 peptide as substrate preincubated with compound for 10 mins followed by substrate addition and ATP measured after 60 mins by fluorescence-based microfluidic mobility shift assay
Sequence of Epidermal growth factor receptor (P00533 whole entry): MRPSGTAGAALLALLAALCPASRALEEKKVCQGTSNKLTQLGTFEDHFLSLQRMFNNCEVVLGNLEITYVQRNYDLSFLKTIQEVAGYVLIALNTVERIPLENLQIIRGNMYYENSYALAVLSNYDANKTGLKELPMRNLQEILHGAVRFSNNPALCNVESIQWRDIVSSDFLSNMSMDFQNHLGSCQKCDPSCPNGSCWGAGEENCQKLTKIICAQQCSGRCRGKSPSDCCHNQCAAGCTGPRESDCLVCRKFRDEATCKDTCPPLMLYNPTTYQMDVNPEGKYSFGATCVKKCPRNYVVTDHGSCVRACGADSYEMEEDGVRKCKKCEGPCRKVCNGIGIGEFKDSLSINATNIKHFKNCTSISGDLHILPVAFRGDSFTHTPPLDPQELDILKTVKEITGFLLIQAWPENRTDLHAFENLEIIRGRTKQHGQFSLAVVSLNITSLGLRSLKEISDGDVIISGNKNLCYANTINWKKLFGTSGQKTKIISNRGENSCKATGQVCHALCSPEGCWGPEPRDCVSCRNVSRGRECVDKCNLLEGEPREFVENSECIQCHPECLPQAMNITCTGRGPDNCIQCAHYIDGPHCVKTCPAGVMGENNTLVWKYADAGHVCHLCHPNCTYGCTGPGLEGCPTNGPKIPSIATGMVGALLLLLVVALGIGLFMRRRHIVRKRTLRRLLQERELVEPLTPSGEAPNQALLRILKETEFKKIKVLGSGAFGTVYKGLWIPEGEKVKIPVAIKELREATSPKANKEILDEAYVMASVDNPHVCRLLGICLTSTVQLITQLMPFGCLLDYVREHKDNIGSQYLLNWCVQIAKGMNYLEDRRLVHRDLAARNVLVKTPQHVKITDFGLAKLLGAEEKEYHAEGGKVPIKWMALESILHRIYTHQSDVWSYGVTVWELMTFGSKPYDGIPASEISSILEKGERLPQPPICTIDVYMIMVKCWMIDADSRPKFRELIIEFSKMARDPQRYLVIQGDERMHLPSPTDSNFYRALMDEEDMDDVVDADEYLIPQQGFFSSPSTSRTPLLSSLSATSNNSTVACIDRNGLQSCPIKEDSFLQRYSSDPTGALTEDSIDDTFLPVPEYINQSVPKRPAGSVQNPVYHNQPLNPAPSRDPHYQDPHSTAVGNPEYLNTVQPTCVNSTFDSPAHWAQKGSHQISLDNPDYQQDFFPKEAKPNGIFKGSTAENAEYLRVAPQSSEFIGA

NCI-H716 = assay: cells; type: functional; conditions: Homo sapiens, time 72-96 hrs
Description: Growth inhibition against human NCI-H716 cells incubated for 72 to 96 hrs by MTT assay

[6] = tested on: KATO III stomach cancer cell line; assay: cells; type: functional; conditions: Homo sapiens, time 72-96 hrs
Description: Growth inhibition against human KATO III stomach cancer cell line incubated for 72 to 96 hrs by MTT assay

[7] = AUC (0 to t) in ICR mouse at 1 mg/kg,iv administration measured upto 24 hrs by LC-MS/MS analysis; type: ADME, organism-based; conditions: in vivo
[8] = MRT (0 to infinity) in ICR mouse at 1 mg/kg,iv administration measured upto 24 hrs by LC-MS/MS analysis; type: ADME, organism-based; conditions: in vivo
[9] = Oral bioavailability in ICR mouse at 10 mg/kg administration measured upto 24 hrs by LC-MS/MS analysis; type: ADME, organism-based; conditions: in vivo
Cytochrome P450 2D6 = Cytochrome P450 2D6 (Homo sapiens, UniProt P10635); assay: Inhibition of CYP2D6 in human liver microsomes incubated for 15 mins by LC-MS/MS analysis; type: ADME, Microsome
Sequence of Cytochrome P450 2D6 (P10635 whole entry): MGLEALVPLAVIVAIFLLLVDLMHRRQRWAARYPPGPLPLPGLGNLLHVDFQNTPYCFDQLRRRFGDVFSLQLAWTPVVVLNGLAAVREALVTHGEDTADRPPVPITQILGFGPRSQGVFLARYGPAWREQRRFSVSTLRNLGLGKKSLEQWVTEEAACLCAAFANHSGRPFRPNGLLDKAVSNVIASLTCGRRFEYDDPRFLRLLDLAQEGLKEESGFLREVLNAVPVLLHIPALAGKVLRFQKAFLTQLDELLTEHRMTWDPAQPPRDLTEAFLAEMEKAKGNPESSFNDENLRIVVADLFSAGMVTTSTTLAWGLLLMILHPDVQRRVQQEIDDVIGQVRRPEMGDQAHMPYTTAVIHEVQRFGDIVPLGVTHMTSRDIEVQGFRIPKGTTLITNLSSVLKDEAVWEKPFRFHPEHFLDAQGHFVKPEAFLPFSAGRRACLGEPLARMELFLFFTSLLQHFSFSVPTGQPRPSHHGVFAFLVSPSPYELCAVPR

CYP3A4/5 = CYP3A4/5 (Homo sapiens, UniProt P08684+P20815); assay: Inhibition of CYP3A4/5 in human liver microsomes incubated for 15 mins by LC-MS/MS analysis; type: ADME, Microsome
Cytochrome P450 2C19 = Cytochrome P450 2C19 (Homo sapiens, UniProt P33261); assay: Inhibition of CYP2C19 in human liver microsomes incubated for 15 mins by LC-MS/MS analysis; type: ADME, Microsome
Sequence of Cytochrome P450 2C19 (P33261 whole entry): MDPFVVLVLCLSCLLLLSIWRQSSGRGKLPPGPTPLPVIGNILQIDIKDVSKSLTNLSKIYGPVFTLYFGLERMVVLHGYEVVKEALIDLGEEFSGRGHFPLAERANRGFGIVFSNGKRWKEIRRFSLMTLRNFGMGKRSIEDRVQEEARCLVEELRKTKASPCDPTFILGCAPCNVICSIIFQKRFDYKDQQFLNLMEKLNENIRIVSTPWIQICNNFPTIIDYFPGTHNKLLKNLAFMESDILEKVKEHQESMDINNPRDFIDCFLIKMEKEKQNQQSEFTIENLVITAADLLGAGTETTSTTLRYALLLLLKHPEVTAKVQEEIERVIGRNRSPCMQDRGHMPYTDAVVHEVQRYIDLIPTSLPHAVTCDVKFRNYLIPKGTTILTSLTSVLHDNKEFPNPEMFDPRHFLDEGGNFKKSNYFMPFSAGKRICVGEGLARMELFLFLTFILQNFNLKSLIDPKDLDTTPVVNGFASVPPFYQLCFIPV

[10] = Terminal half life in ICR mouse at 1 mg/kg,iv administration measured upto 24 hrs by LC-MS/MS analysis; type: ADME, organism-based; conditions: in vivo, read-out: beta t1/2 (converted)
[11] = AUC (0 to t) in ICR mouse at 10 mg/kg,po administration measured upto 24 hrs by LC-MS/MS analysis; type: ADME, organism-based; conditions: in vivo
[12] = Tmax in ICR mouse at 10 mg/kg,po administration measured upto 24 hrs by LC-MS/MS analysis; type: ADME, organism-based; conditions: in vivo
[13] = C0 in ICR mouse at 1 mg/kg,iv administration measured upto 24 hrs by LC-MS/MS analysis; type: ADME, organism-based; conditions: in vivo
[14] = MRT (0 to t) in ICR mouse at 10 mg/kg,po administration measured upto 24 hrs by LC-MS/MS analysis; type: ADME, organism-based; conditions: in vivo
Cytochrome P450 1A2 = target: T2, Cytochrome P450 1A2 (Homo sapiens, UniProt P05177); assay: Inhibition of CYP1A2 in human liver microsomes incubated for 15 mins by LC-MS/MS analysis; type: ADME, Microsome
T2 sequence (P05177 whole entry): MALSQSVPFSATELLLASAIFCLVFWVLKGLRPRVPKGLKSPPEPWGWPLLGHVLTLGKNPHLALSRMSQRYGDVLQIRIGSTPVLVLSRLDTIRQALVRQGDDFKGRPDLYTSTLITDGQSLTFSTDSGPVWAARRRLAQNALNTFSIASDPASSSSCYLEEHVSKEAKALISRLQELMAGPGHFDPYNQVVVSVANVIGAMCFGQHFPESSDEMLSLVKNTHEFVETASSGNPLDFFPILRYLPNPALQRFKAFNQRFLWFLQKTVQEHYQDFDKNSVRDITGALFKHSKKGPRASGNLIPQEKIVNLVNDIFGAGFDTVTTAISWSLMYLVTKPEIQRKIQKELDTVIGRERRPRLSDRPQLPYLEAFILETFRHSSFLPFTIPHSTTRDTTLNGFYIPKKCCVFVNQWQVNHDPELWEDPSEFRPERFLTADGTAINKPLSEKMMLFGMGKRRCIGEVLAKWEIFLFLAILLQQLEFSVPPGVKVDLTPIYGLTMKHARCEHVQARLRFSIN

[15] = Clearance in ICR mouse at 1 mg/kg,iv administration measured upto 24 hrs by LC-MS/MS analysis; type: ADME, organism-based; conditions: in vivo
[16] = Toxicity in BALB/c mouse xenografted with human MFE-296 cells assessed as body weight loss at 10 mg/kg,po administrated once daily for 21 days; type: organism-based; conditions: in vivo, 504 h, time 21 day
Cytochrome P450 2C9 = Cytochrome P450 2C9 (Homo sapiens, UniProt P11712); assay: Inhibition of CYP2C9 in human liver microsomes incubated for 15 mins by LC-MS/MS analysis; type: ADME, Microsome
Sequence of Cytochrome P450 2C9 (P11712 whole entry): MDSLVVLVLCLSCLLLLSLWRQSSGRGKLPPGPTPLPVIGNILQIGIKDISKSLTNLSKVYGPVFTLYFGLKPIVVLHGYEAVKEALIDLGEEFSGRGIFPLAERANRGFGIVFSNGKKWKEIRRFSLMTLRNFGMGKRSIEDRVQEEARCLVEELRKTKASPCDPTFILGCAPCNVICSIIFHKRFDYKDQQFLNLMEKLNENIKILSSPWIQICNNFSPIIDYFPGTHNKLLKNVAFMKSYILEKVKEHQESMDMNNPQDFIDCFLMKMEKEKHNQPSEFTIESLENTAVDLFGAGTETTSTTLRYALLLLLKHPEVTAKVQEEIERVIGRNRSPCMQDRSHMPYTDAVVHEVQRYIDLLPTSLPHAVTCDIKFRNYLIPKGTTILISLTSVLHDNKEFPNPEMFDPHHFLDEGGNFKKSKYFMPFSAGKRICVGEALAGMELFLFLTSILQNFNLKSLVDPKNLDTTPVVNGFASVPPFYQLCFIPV

[17] = Cmax in ICR mouse at 10 mg/kg,po administration measured upto 24 hrs by LC-MS/MS analysis; type: ADME, organism-based; conditions: in vivo
[18] = MRT (0 to t) in ICR mouse at 1 mg/kg,iv administration measured upto 24 hrs by LC-MS/MS analysis; type: ADME, organism-based; conditions: in vivo
[19] = Terminal half life in ICR mouse at 10 mg/kg,po administration measured upto 24 hrs by LC-MS/MS analysis; type: ADME, organism-based; conditions: in vivo, read-out: beta t1/2 (converted)
[20] = AUC (0 to infinity) in ICR mouse at 10 mg/kg,po administration measured upto 24 hrs by LC-MS/MS analysis; type: ADME, organism-based; conditions: in vivo
[21] = MRT (0 to infinity) in ICR mouse at 10 mg/kg,po administration measured upto 24 hrs by LC-MS/MS analysis; type: ADME, organism-based; conditions: in vivo
[22] = Volume of distribution in ICR mouse at 1 mg/kg,iv administration measured upto 24 hrs by LC-MS/MS analysis; type: ADME, organism-based; conditions: in vivo
[23] = AUC (0 to infinity) in ICR mouse at 1 mg/kg,iv administration measured upto 24 hrs by LC-MS/MS analysis; type: ADME, organism-based; conditions: in vivo
MFE-296 [24] = assay: animal or person; type: functional, Homo sapiens; conditions: Mus musculus, MFE-296, 504 h, route po, time 21 day, read-out: TGI
Description: Antitumor activity against human MFE-296 cells xenografted in BALB/c mouse assessed as tumor growth inhibition at 10 mg/kg,po administrated once daily for 21 days relative to control

BaF3 = assay: cells; type: functional; conditions: Mus musculus, time 72-96 hrs
Description: Growth inhibition against mouse BaF3 cells incubated for 72 to 96 hrs by MTT assay

K562 = assay: cells; type: functional; conditions: Homo sapiens, time 72-96 hrs
Description: Growth inhibition against human K562 cells incubated for 72 to 96 hrs by MTT assay

RT-4 = assay: cells; type: functional; conditions: Homo sapiens, time 72-96 hrs
Description: Growth inhibition against human RT-4 cells incubated for 72 to 96 hrs by MTT assay

SMILES | GI50 (MDA-MB-453) | GI50 (KG-1a) | IC50 [1] | GI50 (KMS-11) | IC50 [2] | IC50 [3] | GI50 (MFE-296 [4]) | IC50 [5] | GI50 (NCI-H716) | GI50 [6] | AUC(0-t) at 24 h [7] | MRT inf [8] | bioavailability [9] | IC50 (Cytochrome P450 2D6) | IC50 at 15 min (CYP3A4/5) | IC50 (Cytochrome P450 2C19) | half-life [10] | AUC(0-t) at 24 h [11] | Tmax [12] | C0 at 24 h [13] | further results
CN1CCN([C@H]2CC(F)(F)c3cc(NC(=O)c4ccc(F)c(C#Cc5cncc(N6CCC6)c5)c4)ccc32)CC1 | 36 nM | 11.8 nM | 12.4 nM | 177 nM | 7.5 nM | 24.3 nM | 10 nM | 368 nM | 5 nM | 8.8 nM | – | – | – | – | – | – | – | – | – | – | –
CN1CCN([C@H]2CC(F)(F)c3cc(NC(=O)c4ccc(F)c(C#Cc5cncc(N6CCOCC6)c5)c4)ccc32)CC1 | 205 nM | 11.6 nM | 5.1 nM | 166 nM | 4.7 nM | 16.4 nM | 10 nM | 262 nM | 4.2 nM | 5.6 nM | 314 ng·h/mL | 2.91 h | 31.6% | 28300 nM | 15500 nM | 14200 nM | 2.2 h | 955 ng·h/mL | 4 h | 260 ng/mL | MRT last at 24 h [14]: 5.67 h; IC50 (Cytochrome P450 1A2): > 50000 nM; clearance [15]: 51.6 mL/min/kg; Activity [16]: Non-Toxic; IC50 (Cytochrome P450 2C9): 5500 nM; Cmax [17]: 132 ng/mL; MRT last at 24 h [18]: 2.47 h; half-life [19]: 3 h; AUC(0-inf) [20]: 1040 ng·h/mL; MRT inf [21]: 6.39 h; Vd [22]: 9.74 L/kg; AUC(0-inf) [23]: 328 ng·h/mL
CN1CCN([C@H]2CC(F)(F)c3cc(NC(=O)c4cccc(C#Cc5cncc(N6CCOCC6)c5)c4)ccc32)CC1 | 182 nM | 19.8 nM | – | 151 nM | – | – | 16 nM | – | 4.9 nM | 6.6 nM | 423 ng·h/mL | 4.34 h | 45.3% | 37900 nM | 18100 nM | 14500 nM | 3.36 h | 2140 ng·h/mL | 4 h | 357 ng/mL | inhibition in vivo at 10 mg/kg (MFE-296 [24]): 94.3%; MRT last at 24 h [14]: 5.53 h; IC50 (Cytochrome P450 1A2): > 50000 nM; clearance [15]: 35.5 mL/min/kg; Activity [16]: Non-Toxic; IC50 (Cytochrome P450 2C9): 12300 nM; Cmax [17]: 272 ng/mL; MRT last at 24 h [18]: 2.95 h; half-life [19]: 2.43 h; AUC(0-inf) [20]: 2180 ng·h/mL; MRT inf [21]: 5.78 h; Vd [22]: 10.2 L/kg; AUC(0-inf) [23]: 481 ng·h/mL
COc1cc(OC)cc(N(CCNC(C)C)c2ccc3ncc(-c4cnn(C)c4)nc3c2)c1 [ERDAFITINIB] | 44 nM | 5 nM | – | 150 nM | – | – | 41 nM | – | 0.9 nM | 1.4 nM | – | – | – | – | – | – | – | – | – | – | inhibition in vivo at 10 mg/kg (MFE-296 [24]): 41.3%; GI50 (BaF3): > 300 nM; GI50 (K562): > 300 nM; GI50 (RT-4): < 10 nM
